molecular target: T1, Adenosine receptor A1 (Homo sapiens, UniProt P30542); test: Displacement of [3H]-DPCPX from human adenosine A1 receptor expressed in CHO cell membranes after 120 mins by scintillation counting method
T1 sequence (P30542 whole entry): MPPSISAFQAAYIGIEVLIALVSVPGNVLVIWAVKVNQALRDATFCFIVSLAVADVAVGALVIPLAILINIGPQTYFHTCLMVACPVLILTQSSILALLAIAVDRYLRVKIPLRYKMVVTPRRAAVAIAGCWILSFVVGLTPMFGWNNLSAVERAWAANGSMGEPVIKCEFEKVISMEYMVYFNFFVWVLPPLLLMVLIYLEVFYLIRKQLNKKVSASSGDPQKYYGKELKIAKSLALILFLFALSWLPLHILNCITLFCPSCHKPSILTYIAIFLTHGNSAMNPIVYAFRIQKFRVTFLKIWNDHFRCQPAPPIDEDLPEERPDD

Compound	Ki
Nc1nc(Cc2ccccc2)nc2cn(-c3ccccc3O)nc12	52 nM
Cc1ccc(-c2nc(N)c3nn(Cc4ccccc4)cc3n2)o1	136 nM
COc1ccccc1-n1cc2nc(Cc3ccccc3)nc(N)c2n1	103 nM
Cc1ccc(-c2nc(N)c3nn(-c4ccccc4)cc3n2)o1	42 nM
Nc1nc(-c2ccco2)nc2cn(Cc3ccccc3O)nc12	242 nM
Cc1ccc(-c2nc(N)c3nn(Cc4cccc(F)c4)cc3n2)o1	252 nM
Cc1ccc(-c2nc(N)c3nn(Cc4cccc(O)c4)cc3n2)o1	65 nM
COc1ccccc1Cn1cc2nc(-c3ccc(C)o3)nc(N)c2n1	18 nM
Nc1nc(-c2cccs2)nc2cn(-c3ccccc3O)nc12	159 nM
Cc1nc(N)c2nn(-c3ccccc3F)cc2n1	410 nM
Cc1ccc(-c2nc(N)c3nn(Cc4ccccc4O)cc3n2)o1	111 nM
Nc1nc(-c2ccco2)nc2cn(-c3ccccc3O)nc12	372 nM
Nc1nc(-c2ccco2)nc2cn(-c3ccccc3)nc12	206 nM
COc1ccccc1-n1cc2nc(CCCc3ccccc3)nc(N)c2n1	49 nM
COc1cccc(Cn2cc3nc(-c4ccc(C)o4)nc(N)c3n2)c1	120 nM

molecular target: T2, Adenosine receptor A2a (Homo sapiens, UniProt P29274); test: Displacement of [3H]-ZM241385 from human adenosine A2A receptor expressed in CHO cell membranes after 60 mins by scintillation counting method
T2 sequence (P29274 whole entry): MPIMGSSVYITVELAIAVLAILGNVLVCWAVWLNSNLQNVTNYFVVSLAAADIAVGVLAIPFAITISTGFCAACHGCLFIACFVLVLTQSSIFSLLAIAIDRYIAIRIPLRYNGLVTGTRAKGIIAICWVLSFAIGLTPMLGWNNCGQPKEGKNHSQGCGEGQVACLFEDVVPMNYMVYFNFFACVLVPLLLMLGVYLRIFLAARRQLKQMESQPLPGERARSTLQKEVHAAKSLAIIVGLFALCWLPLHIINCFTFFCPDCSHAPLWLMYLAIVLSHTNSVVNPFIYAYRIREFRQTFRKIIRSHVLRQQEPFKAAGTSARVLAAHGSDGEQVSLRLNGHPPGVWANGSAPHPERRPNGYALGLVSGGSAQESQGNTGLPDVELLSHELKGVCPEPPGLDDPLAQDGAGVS

Compound	Ki
Cc1ccc(-c2nc(N)c3nn(Cc4ccccc4)cc3n2)o1	9.23 nM
Cc1ccc(-c2nc(N)c3nn(-c4ccccc4)cc3n2)o1	99 nM
Nc1nc(-c2ccco2)nc2cn(Cc3ccccc3O)nc12	17 nM
Cc1ccc(-c2nc(N)c3nn(Cc4cccc(F)c4)cc3n2)o1	51 nM
Cc1ccc(-c2nc(N)c3nn(Cc4cccc(O)c4)cc3n2)o1	14 nM
COc1ccccc1Cn1cc2nc(-c3ccc(C)o3)nc(N)c2n1	3.62 nM
Nc1nc(-c2cccs2)nc2cn(-c3ccccc3O)nc12	412 nM
Cc1ccc(-c2nc(N)c3nn(Cc4ccccc4O)cc3n2)o1	38 nM
Nc1nc(-c2ccco2)nc2cn(-c3ccccc3O)nc12	89 nM
Nc1nc(-c2ccco2)nc2cn(-c3ccccc3)nc12	195 nM
COc1ccccc1-n1cc2nc(CCCc3ccccc3)nc(N)c2n1	647 nM
COc1cccc(Cn2cc3nc(-c4ccc(C)o4)nc(N)c3n2)c1	5.26 nM

molecular target: T3, Adenosine receptor A3 (Homo sapiens, UniProt P0DMS8); test: Displacement of [125I]-AB-MECA from human adenosine A3 receptor expressed in CHO cell membranes after 60 mins by scintillation counting method
T3 sequence (P0DMS8 whole entry): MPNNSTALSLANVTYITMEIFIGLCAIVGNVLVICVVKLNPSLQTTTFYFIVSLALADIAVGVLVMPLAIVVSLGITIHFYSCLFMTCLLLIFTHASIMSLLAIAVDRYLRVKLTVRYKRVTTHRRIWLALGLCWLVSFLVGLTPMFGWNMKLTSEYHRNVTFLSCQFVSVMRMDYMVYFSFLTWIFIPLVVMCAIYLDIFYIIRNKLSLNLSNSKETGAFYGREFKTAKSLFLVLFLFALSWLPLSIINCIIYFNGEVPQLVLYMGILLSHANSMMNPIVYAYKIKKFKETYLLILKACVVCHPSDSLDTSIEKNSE

Compound	Ki
Cc1ccc(-c2nc(N)c3nn(Cc4ccccc4)cc3n2)o1	269 nM
COc1ccccc1-n1cc2nc(Cc3ccccc3)nc(N)c2n1	405 nM
Cc1ccc(-c2nc(N)c3nn(-c4ccccc4)cc3n2)o1	147 nM
Nc1nc(-c2ccco2)nc2cn(Cc3ccccc3O)nc12	905 nM
Cc1ccc(-c2nc(N)c3nn(Cc4cccc(F)c4)cc3n2)o1	427 nM
Cc1ccc(-c2nc(N)c3nn(Cc4cccc(O)c4)cc3n2)o1	225 nM
COc1ccccc1Cn1cc2nc(-c3ccc(C)o3)nc(N)c2n1	82 nM
Nc1nc(-c2cccs2)nc2cn(-c3ccccc3O)nc12	209 nM
Cc1ccc(-c2nc(N)c3nn(Cc4ccccc4O)cc3n2)o1	122 nM
COc1cccc(Cn2cc3nc(-c4ccc(C)o4)nc(N)c3n2)c1	88 nM

molecular target: T2, Adenosine receptor A2a; test: Displacement of [3H]-ZM241385 from human adenosine A2A receptor expressed in CHO cell membranes at 1 uM after 60 mins by scintillation counting method relative to control

Compound	inhibition
Nc1nc(Cc2ccccc2)nc2cn(-c3ccccc3O)nc12	21%
COc1ccccc1-n1cc2nc(Cc3ccccc3)nc(N)c2n1	34%
Cc1nc(N)c2nn(-c3ccccc3F)cc2n1	23%

molecular target: T4, Adenosine receptor A3 (Homo sapiens) (UniProt P0DMS8); test: Displacement of [125I]-AB-MECA from human adenosine A3 receptor expressed in CHO cell membranes at 1 uM after 60 mins by scintillation counting method relative to control
T4 sequence (whole entry): T3 sequence (P0DMS8 whole entry)

Compound	inhibition
Nc1nc(Cc2ccccc2)nc2cn(-c3ccccc3O)nc12	19%
Cc1nc(N)c2nn(-c3ccccc3F)cc2n1	8%
Nc1nc(-c2ccco2)nc2cn(-c3ccccc3O)nc12	36%
Nc1nc(-c2ccco2)nc2cn(-c3ccccc3)nc12	39%
COc1ccccc1-n1cc2nc(CCCc3ccccc3)nc(N)c2n1	6%

molecular target: T5, Adenosine receptor A2b (Homo sapiens) (UniProt P29275); test: Antagonist activity at human adenosine A2B receptor expressed in CHO cell membranes assessed as inhibition of NECA-stimulated cAMP level at 1 uM preincubated for 10 mins followed by NECA stimulation by scintillation counting method in presence of [3H]-cyclic AMP; format: functional
T5 sequence (whole entry): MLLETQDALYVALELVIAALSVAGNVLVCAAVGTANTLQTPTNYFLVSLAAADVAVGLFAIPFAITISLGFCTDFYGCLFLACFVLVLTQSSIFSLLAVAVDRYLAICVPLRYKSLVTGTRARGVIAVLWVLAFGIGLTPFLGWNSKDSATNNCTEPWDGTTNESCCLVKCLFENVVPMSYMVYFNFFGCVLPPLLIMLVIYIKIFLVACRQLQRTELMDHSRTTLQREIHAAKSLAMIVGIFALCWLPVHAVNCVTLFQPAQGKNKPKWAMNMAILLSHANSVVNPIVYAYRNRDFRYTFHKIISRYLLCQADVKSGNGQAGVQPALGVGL

Compound	inhibition
Nc1nc(Cc2ccccc2)nc2cn(-c3ccccc3O)nc12	1%
Cc1ccc(-c2nc(N)c3nn(Cc4ccccc4)cc3n2)o1	20%
COc1ccccc1-n1cc2nc(Cc3ccccc3)nc(N)c2n1	1%
Cc1ccc(-c2nc(N)c3nn(-c4ccccc4)cc3n2)o1	32%
COc1ccccc1Cn1cc2nc(-c3ccc(C)o3)nc(N)c2n1	30%
Nc1nc(-c2cccs2)nc2cn(-c3ccccc3O)nc12	28%
Cc1nc(N)c2nn(-c3ccccc3F)cc2n1	8%
Nc1nc(-c2ccco2)nc2cn(-c3ccccc3O)nc12	42%
Nc1nc(-c2ccco2)nc2cn(-c3ccccc3)nc12	1%
COc1ccccc1-n1cc2nc(CCCc3ccccc3)nc(N)c2n1	21%

molecular target: T6, Adenosine receptor A2b (Homo sapiens, UniProt P29275); test: Antagonist activity at human adenosine A2B receptor expressed in CHO cell membranes assessed as inhibition of NECA-stimulated cAMP level preincubated for 10 mins followed by NECA stimulation by scintillation counting method in presence of [3H]-cyclic AMP; format: functional
T6 sequence (P29275 whole entry): T5 sequence (whole entry)

Compound	IC50
Nc1nc(-c2ccco2)nc2cn(Cc3ccccc3O)nc12	112 nM
Cc1ccc(-c2nc(N)c3nn(Cc4cccc(F)c4)cc3n2)o1	421 nM
Cc1ccc(-c2nc(N)c3nn(Cc4cccc(O)c4)cc3n2)o1	633 nM
Cc1ccc(-c2nc(N)c3nn(Cc4ccccc4O)cc3n2)o1	395 nM
COc1cccc(Cn2cc3nc(-c4ccc(C)o4)nc(N)c3n2)c1	293 nM

organism: Homo sapiens; test: Selectivity ratio of Ki for human adenosine A1 receptor to Ki for human adenosine A2A receptor

Compound	Ratio Ki
Cc1ccc(-c2nc(N)c3nn(Cc4ccccc4)cc3n2)o1	15
Nc1nc(-c2ccco2)nc2cn(Cc3ccccc3O)nc12	3
Cc1ccc(-c2nc(N)c3nn(Cc4cccc(F)c4)cc3n2)o1	3
Cc1ccc(-c2nc(N)c3nn(Cc4cccc(O)c4)cc3n2)o1	3
COc1ccccc1Cn1cc2nc(-c3ccc(C)o3)nc(N)c2n1	3
Cc1ccc(-c2nc(N)c3nn(Cc4ccccc4O)cc3n2)o1	3
COc1cccc(Cn2cc3nc(-c4ccc(C)o4)nc(N)c3n2)c1	22

molecular target: T1, Adenosine receptor A1; test: Antagonist activity at human adenosine A1 receptor expressed in CHO cell membranes assessed as suppression of CCPA-mediated inhibition of cAMP level by scintillation counting method in presence of [3H]-cyclic AMP; format: functional

Compound	IC50
Cc1ccc(-c2nc(N)c3nn(Cc4ccccc4)cc3n2)o1	152 nM
COc1ccccc1Cn1cc2nc(-c3ccc(C)o3)nc(N)c2n1	21 nM
COc1cccc(Cn2cc3nc(-c4ccc(C)o4)nc(N)c3n2)c1	134 nM

molecular target: T2, Adenosine receptor A2a; test: Antagonist activity at human adenosine A2A receptor expressed in CHO cell membranes assessed as inhibition of NECA-stimulated cAMP level preincubated for 10 mins followed by NECA stimulation by scintillation counting method in presence of [3H]-cyclic AMP; format: functional

Compound	IC50
Cc1ccc(-c2nc(N)c3nn(Cc4ccccc4)cc3n2)o1	10.9 nM
COc1ccccc1Cn1cc2nc(-c3ccc(C)o3)nc(N)c2n1	4.35 nM
COc1cccc(Cn2cc3nc(-c4ccc(C)o4)nc(N)c3n2)c1	6.42 nM

From ChEMBL document CHEMBL3797185, “Exploring the 2- and 5-positions of the pyrazolo[4,3-d]pyrimidin-7-amino scaffold to target human A1 and A2A adenosine receptors” (Bioorg Med Chem, 2016)
